Measurements from ChEMBL document CHEMBL3885881, “DrugMatrix”.

Species: Rattus norvegicus
Assay: DrugMatrix - Regimen: Daily Repeat
Type: toxicity, organism-based, Sprague-Dawley
Design: regimen Daily Repeat, gender Male, age 6-8 weeks
Conditions: in vivo, po, route oral GAVAGE, vehicle .5 % CMC; for BASOPHIL / EOSINOPHIL / ERYTHROCYTE COUNT / HEMATOCRIT / HEMOGLOBIN / LEUKOCYTE COUNT / LYMPHOCYTE / MEAN CORPUSCULAR HEMOGLOBIN / MEAN CORPUSCULAR HEMOGLOBIN CONCENTRATION / MEAN CORPUSCULAR VOLUME / MONOCYTE / NEUTROPHIL / PLATELET COUNT: tissue Blood; for ALANINE AMINOTRANSFERASE / ALBUMIN / ALKALINE PHOSPHATASE / ASPARTATE AMINOTRANSFERASE / BLOOD UREA NITROGEN / CHLORIDE / CHOLESTEROL / CREATINE PHOSPHOKINASE / CREATININE / GLUCOSE / PHOSPHORUS / POTASSIUM / SODIUM / TOTAL BILIRUBIN / TOTAL PROTEIN: tissue Plasma
[1] = 0 mg/kg, 72 h, dose level Control, time 3 day
[2] = 0 mg/kg, 120 h, dose level Control, time 5 day
[3] = 25 mg/kg, 72 h, dose level Low, time 3 day
[4] = 25 mg/kg, 120 h, dose level Low, time 5 day

`N=C(N)NCCN1CCCCCCC1` [GUANETHIDINE] was tested, and the BASOPHIL [1] was 0%, the EOSINOPHIL [1] was 0% and the “ERYTHROCYTE COUNT” value [1] was 6.34 x10E6/uL. The HEMATOCRIT [1] was 37.62%, the HEMOGLOBIN [1] was 14.82 G/DL and the “LEUKOCYTE COUNT” value [1] was 11.18 x10E3/uL. The LYMPHOCYTE [1] was 87.5%, the “MEAN CORPUSCULAR HEMOGLOBIN” value [1] was 23.48 pg and the “MEAN CORPUSCULAR HEMOGLOBIN CONCENTRATION” value [1] was 39.5 G/DL. For the same molecule, the “MEAN CORPUSCULAR VOLUME” value [1] was 59.45 fL, the MONOCYTE [1] was 1.67% and the NEUTROPHIL [1] was 10.83%. The “PLATELET COUNT” value [1] was 1074.83 x10E3/uL, the “ALANINE AMINOTRANSFERASE” value [1] was 36.5 u/L and the ALBUMIN [1] was 3.9 G/DL. The “ALKALINE PHOSPHATASE” value [1] was 370.17 u/L, the “ASPARTATE AMINOTRANSFERASE” value [1] was 63.17 u/L and the “BLOOD UREA NITROGEN” value [1] was 16.83 mg/dL. For the same molecule, the CHLORIDE [1] was 99.33 MEQ/L, the CHOLESTEROL [1] was 64.33 mg/dL and the “CREATINE PHOSPHOKINASE” value [1] was 127 u/L. It also gave a CREATININE [1] of 0.55 mg/dL, a GLUCOSE [1] of 173.5 mg/dL and a PHOSPHORUS [1] of 10.08 mg/dL. The POTASSIUM [1] was 6.23 MEQ/L, the SODIUM [1] was 143.5 MEQ/L and the “TOTAL BILIRUBIN” value [1] was 0.52 mg/dL. For the same molecule, the “TOTAL PROTEIN” value [1] was 6.35 G/DL, the BASOPHIL [2] was 0% and the EOSINOPHIL [2] was 0.17%. For the same molecule, the “ERYTHROCYTE COUNT” value [2] was 6.12 x10E6/uL, the HEMATOCRIT [2] was 37.08% and the HEMOGLOBIN [2] was 14.82 G/DL. The “LEUKOCYTE COUNT” value [2] was 11.87 x10E3/uL, the LYMPHOCYTE [2] was 83.33% and the “MEAN CORPUSCULAR HEMOGLOBIN” value [2] was 24.25 pg. For the same molecule, the “MEAN CORPUSCULAR HEMOGLOBIN CONCENTRATION” value [2] was 39.97 G/DL, the “MEAN CORPUSCULAR VOLUME” value [2] was 60.65 fL and the MONOCYTE [2] was 1.5%. For the same molecule, the NEUTROPHIL [2] was 15%, the “PLATELET COUNT” value [2] was 1042.83 x10E3/uL and the “ALANINE AMINOTRANSFERASE” value [2] was 46 u/L. The ALBUMIN [2] was 3.82 G/DL, the “ALKALINE PHOSPHATASE” value [2] was 369.5 u/L and the “ASPARTATE AMINOTRANSFERASE” value [2] was 65 u/L. The “BLOOD UREA NITROGEN” value [2] was 16.33 mg/dL, the CHLORIDE [2] was 100.67 MEQ/L and the CHOLESTEROL [2] was 57.17 mg/dL. The “CREATINE PHOSPHOKINASE” value [2] was 130 u/L, the CREATININE [2] was 0.53 mg/dL and the GLUCOSE [2] was 163.33 mg/dL. It also gave a PHOSPHORUS [2] of 9.53 mg/dL, a POTASSIUM [2] of 6.27 MEQ/L and an SODIUM [2] of 144.83 MEQ/L. For the same molecule, the “TOTAL BILIRUBIN” value [2] was 0.55 mg/dL, the “TOTAL PROTEIN” value [2] was 6.32 G/DL and the BASOPHIL [3] was 0%. The EOSINOPHIL [3] was 0%, the “ERYTHROCYTE COUNT” value [3] was 6 x10E6/uL and the HEMATOCRIT [3] was 35.93%. For the same molecule, the HEMOGLOBIN [3] was 14.07 G/DL, the “LEUKOCYTE COUNT” value [3] was 11.77 x10E3/uL and the LYMPHOCYTE [3] was 86.33%. For the same molecule, the “MEAN CORPUSCULAR HEMOGLOBIN” value [3] was 23.5 pg, the “MEAN CORPUSCULAR HEMOGLOBIN CONCENTRATION” value [3] was 39.17 G/DL and the “MEAN CORPUSCULAR VOLUME” value [3] was 60.07 fL. For the same molecule, the MONOCYTE [3] was 0%, the NEUTROPHIL [3] was 13.67% and the “PLATELET COUNT” value [3] was 1321.67 x10E3/uL. The “ALANINE AMINOTRANSFERASE” value [3] was 33.67 u/L, the ALBUMIN [3] was 3.63 G/DL and the “ALKALINE PHOSPHATASE” value [3] was 372.67 u/L. The “ASPARTATE AMINOTRANSFERASE” value [3] was 57.67 u/L, the “BLOOD UREA NITROGEN” value [3] was 11.33 mg/dL and the CHLORIDE [3] was 98.67 MEQ/L. For the same molecule, the CHOLESTEROL [3] was 63.67 mg/dL, the “CREATINE PHOSPHOKINASE” value [3] was 142.33 u/L and the CREATININE [3] was 0.43 mg/dL. For the same molecule, the GLUCOSE [3] was 175.67 mg/dL, the PHOSPHORUS [3] was 12.27 mg/dL and the POTASSIUM [3] was 5.97 MEQ/L. For the same molecule, the SODIUM [3] was 143.67 MEQ/L, the “TOTAL BILIRUBIN” value [3] was 0.33 mg/dL and the “TOTAL PROTEIN” value [3] was 5.8 G/DL. The BASOPHIL [4] was 0%, the EOSINOPHIL [4] was 0.67% and the “ERYTHROCYTE COUNT” value [4] was 5.92 x10E6/uL. The HEMATOCRIT [4] was 35.83%, the HEMOGLOBIN [4] was 14.4 G/DL and the “LEUKOCYTE COUNT” value [4] was 11.83 x10E3/uL. The LYMPHOCYTE [4] was 89.67%, the “MEAN CORPUSCULAR HEMOGLOBIN” value [4] was 24.33 pg and the “MEAN CORPUSCULAR HEMOGLOBIN CONCENTRATION” value [4] was 40.17 G/DL. The “MEAN CORPUSCULAR VOLUME” value [4] was 60.63 fL, the MONOCYTE [4] was 1% and the NEUTROPHIL [4] was 8.67%. The “PLATELET COUNT” value [4] was 1170.33 x10E3/uL, the “ALANINE AMINOTRANSFERASE” value [4] was 33 u/L and the ALBUMIN [4] was 3.53 G/DL. The “ALKALINE PHOSPHATASE” value [4] was 229.67 u/L, the “ASPARTATE AMINOTRANSFERASE” value [4] was 54.67 u/L and the “BLOOD UREA NITROGEN” value [4] was 10.33 mg/dL. For the same molecule, the CHLORIDE [4] was 100.33 MEQ/L, the CHOLESTEROL [4] was 57.67 mg/dL and the “CREATINE PHOSPHOKINASE” value [4] was 129.33 u/L. For the same molecule, the CREATININE [4] was 0.47 mg/dL, the GLUCOSE [4] was 170.67 mg/dL and the PHOSPHORUS [4] was 11.13 mg/dL. For the same molecule, the POTASSIUM [4] was 5.9 MEQ/L, the SODIUM [4] was 145.33 MEQ/L and the “TOTAL BILIRUBIN” value [4] was 0.2 mg/dL. The “TOTAL PROTEIN” value [4] was 5.7 G/DL.
